Results reported in patent publication US20210193322A1, “NETWORK METHODS FOR NEURODEGENERATIVE DISEASES” (Genting TauRx Diagnostic Centre SDN BHD, priority 2018, published 2021).

What was measured:
bvFTD = details: cited from earlier work
AD diagnosed patients = experiment: Structural correlation network analysis (MRI cortical thickness and surface area correlation matrices, node degree) in AD patients; format: in vivo, human

Compound | treatment benefit in bvFTD (bvFTD) | number of inverse/compensatory non-homologous cortical thickness correlations compared with healthy elderly controls (AD diagnosed patients; 54 AD patients with CDR 0.5 only, baseline and week 65, LMTM 8 mg/day monotherapy, vs 202 healthy elderly, FIGS. 27A-27D) | number of inverse/compensatory non-homologous surface area correlations compared with healthy elderly controls (AD diagnosed patients; 54 AD patients with CDR 0.5 only, baseline and week 65, LMTM 8 mg/day monotherapy, vs 202 healthy elderly, FIGS. 28A-28D) | cortical thickness networks compared with healthy elderly controls (AD diagnosed patients; 96 AD patients (CDR 0.5, 1 or 2), baseline and week 65, LMTM 8 mg/day monotherapy, vs 202 healthy elderly, FIGS. 25A-25D) | surface area networks compared with healthy elderly controls (AD diagnosed patients; 96 AD patients (CDR 0.5, 1 or 2), baseline and week 65, LMTM 8 mg/day monotherapy, vs 202 healthy elderly, FIGS. 26A-26D) | compensatory network correlations (especially non-homologous, positive and inverse correlations) (AD diagnosed patients; summary statement) | cortical thickness correlations, within-lobe (positive) and between-lobe compensatory (inverse) (AD diagnosed patients; week 65 vs baseline, LMTM 8 mg/day monotherapy, 96 AD patients, FIGS. 21A-21B) | surface area correlations, within-lobe (positive) and between-lobe compensatory (inverse) (AD diagnosed patients; week 65 vs baseline, LMTM 8 mg/day monotherapy, 96 AD patients, FIGS. 23A-23B) | effect on cortical thickness structural correlation networks (correlation matrix) (AD diagnosed patients; week 65 vs baseline, LMTM 8 mg/day with symptomatic AD treatments (ach1), 445 AD patients, FIGS. 19A-19B) | effect on non-homologous inter-lobar node degree (cortical thickness and surface area, positive and inverse correlations) (AD diagnosed patients; week 65 vs week 0, LMTM 8 mg/day as add-on, ach1 group, FIGS. 20A-20D) | number of positive and inverse non-homologous cortical thickness correlations (inter-lobar node degree) (AD diagnosed patients; week 65 vs week 0, LMTM 8 mg/day monotherapy, ach0 group, FIGS. 22A-22B) | number of positive and inverse/compensatory surface area correlations (non-homologous inter-lobar node degree) (AD diagnosed patients; week 65 vs week 0, LMTM 8 mg/day monotherapy, ach0 group, FIGS. 24A-24B)
CC12CC3CC(C)(C1)CC(N)(C3)C2 [memantine] | no treatment benefit | – | – | – | – | – | – | – | – | – | – | –
CN(C)c1ccc2c(c1)Sc1cc(N(C)C)ccc1N2 [LMTM, leuco-methylthioninium bis(hydromethanesulfonate)] | – | equivalent to the normal elderly controls | either equivalent to or lower than normal elderly controls | brings the cortical thickness networks closer to normal | normalizes surface area networks | reduce compensatory network correlations | major reduction in thickness correlations | significant reductions in surface area correlations | minimal effect | minimal overall effect | significant reduction | significant reduction
